In article PMC5218480 (PLoS ONE, 2017):

Test system: MV-4-11 cells
Test: Gene expression microarray analysis (Affymetrix PrimeView) and GSEA
Format: cell-based, human
Design: RFU PODN (11730768_x_at) / Fold change /veh PODN (11730768_x_at) / RFU LINC00158 (11744669_a_at) / Fold change /veh LINC00158 (11744669_a_at) / RFU DUSP10 (11751237_a_at) / Fold change /veh DUSP10 (11751237_a_at) / RFU ID3 (11757404_x_at) / Fold change /veh ID3 (11757404_x_at) / RFU PLEKHG5 (11737974_s_at) / Fold change /veh PLEKHG5 (11737974_s_at) / RFU LRRC4B (11730491_at) / Fold change /veh LRRC4B (11730491_at) / RFU GIMAP4 (11747438_a_at) / Fold change /veh GIMAP4 (11747438_a_at) / RFU KRT8 (11758183_x_at) / Fold change /veh KRT8 (11758183_x_at) / RFU CNN1 (11734310_a_at) / Fold change /veh CNN1 (11734310_a_at) / RFU VPS37D (11726825_at) / Fold change /veh VPS37D (11726825_at) / RFU C10orf10 (11716522_x_at) / Fold change /veh C10orf10 (11716522_x_at) / RFU KIR2DL2 /// KIR2DL4 /// KIR2DL5A /// KIR2DL5B /// KIR2DS1 /// KIR2DS2 /// KIR2DS3 /// KIR2DS4 /// KIR3DL3 /// KIR3DL3 /// KIR3DS1 (11738374_at) / Fold change /veh KIR2DL2 /// KIR2DL4 /// KIR2DL5A /// KIR2DL5B /// KIR2DS1 /// KIR2DS2 /// KIR2DS3 /// KIR2DS4 /// KIR3DL3 /// KIR3DL3 /// KIR3DS1 (11738374_at) / RFU C1QL1 (11718748_at) / Fold change /veh C1QL1 (11718748_at) / RFU TMPRSS4 (11747572_a_at) / Fold change /veh TMPRSS4 (11747572_a_at) / RFU HAMP (11756126_x_at) / Fold change /veh HAMP (11756126_x_at) / RFU RNFT2 (11725882_a_at) / Fold change /veh RNFT2 (11725882_a_at) / RFU NR4A2 (11747474_a_at) / Fold change /veh NR4A2 (11747474_a_at) / RFU ABCC12 (11746883_a_at) / Fold change /veh ABCC12 (11746883_a_at) / RFU TMEM136 (11760407_x_at) / Fold change /veh TMEM136 (11760407_x_at) / RFU CLDN22 /// WWC2 (11732394_at) / Fold change /veh CLDN22 /// WWC2 (11732394_at) / RFU HLA-DPB1 (11760878_x_at) / Fold change /veh HLA-DPB1 (11760878_x_at) / RFU SPINT1 (11716480_a_at) / Fold change /veh SPINT1 (11716480_a_at) / RFU GAP43 (11754022_s_at) / Fold change /veh GAP43 (11754022_s_at) / RFU A4GNT (11735810_at) / Fold change /veh A4GNT (11735810_at) / RFU PRB3 (11715151_x_at) / Fold change /veh PRB3 (11715151_x_at) / RFU TUBB4B (11761932_at) / Fold change /veh TUBB4B (11761932_at) / RFU CAPN14 (11732068_a_at) / Fold change /veh CAPN14 (11732068_a_at) / RFU TMCC2 (11721928_a_at) / Fold change /veh TMCC2 (11721928_a_at) / RFU IRGQ (11745062_a_at) / Fold change /veh IRGQ (11745062_a_at) / RFU FAM174B (11720279_a_at) / Fold change /veh FAM174B (11720279_a_at) / RFU TMPRSS4 (11748680_a_at) / Fold change /veh TMPRSS4 (11748680_a_at) / RFU FAM212B (11763350_a_at) / Fold change /veh FAM212B (11763350_a_at) / RFU PLEKHG5 (11743358_a_at) / Fold change /veh PLEKHG5 (11743358_a_at) / RFU ZSCAN30 (11745921_a_at) / Fold change /veh ZSCAN30 (11745921_a_at) / RFU CMKLR1 (11741424_a_at) / Fold change /veh CMKLR1 (11741424_a_at) / RFU LOC101060620 /// MAPK8IP1 (11723275_at) / Fold change /veh LOC101060620 /// MAPK8IP1 (11723275_at) / RFU SPTSSB (11747773_x_at) / Fold change /veh SPTSSB (11747773_x_at) / RFU PRSS12 (11739890_at) / Fold change /veh PRSS12 (11739890_at) / RFU BIN1 (11741810_x_at) / Fold change /veh BIN1 (11741810_x_at) / RFU WNT11 (11732464_a_at) / Fold change /veh WNT11 (11732464_a_at) / RFU C10orf10 (11716521_a_at) / Fold change /veh C10orf10 (11716521_a_at) / RFU C5orf56 (11738089_at) / Fold change /veh C5orf56 (11738089_at) / RFU CYB561 (11721691_x_at) / Fold change /veh CYB561 (11721691_x_at) / RFU ANKRD19P (11752326_a_at) / Fold change /veh ANKRD19P (11752326_a_at) / RFU OR2T12 /// OR2T33 /// OR2T8 (11738714_s_at) / Fold change /veh OR2T12 /// OR2T33 /// OR2T8 (11738714_s_at) / RFU VCAN (11748164_a_at) / Fold change /veh VCAN (11748164_a_at) / RFU JSRP1 (11732532_at) / Fold change /veh JSRP1 (11732532_at) / RFU KRTAP10-11 (11738290_x_at) / Fold change /veh KRTAP10-11 (11738290_x_at) / RFU MYO3A (11730013_a_at) / Fold change /veh MYO3A (11730013_a_at) / RFU EBF3 (11725865_a_at) / Fold change /veh EBF3 (11725865_a_at) / RFU CAMK2N1 (11719241_x_at) / Fold change /veh CAMK2N1 (11719241_x_at) / RFU C5orf56 (11738088_a_at) / Fold change /veh C5orf56 (11738088_a_at) / RFU OLFML3 (11715873_a_at) / Fold change /veh OLFML3 (11715873_a_at) / RFU LOC100653217 /// NTM (11731650_a_at) / Fold change /veh LOC100653217 /// NTM (11731650_a_at) / RFU MAPK11 (11762145_a_at) / Fold change /veh MAPK11 (11762145_a_at) / RFU FIZ1 (11724087_x_at) / Fold change /veh FIZ1 (11724087_x_at) / RFU OASL (11726364_x_at) / Fold change /veh OASL (11726364_x_at) / RFU SOX15 (11748057_x_at) / Fold change /veh SOX15 (11748057_x_at) / RFU CD79A (11719716_a_at) / Fold change /veh CD79A (11719716_a_at) / RFU HIST1H1D (11736915_at) / Fold change /veh HIST1H1D (11736915_at) / RFU CASKIN2 (11723855_a_at) / Fold change /veh CASKIN2 (11723855_a_at) / RFU LOC730098 (11760151_x_at) / Fold change /veh LOC730098 (11760151_x_at) / RFU OR4N2 (11742367_at) / Fold change /veh OR4N2 (11742367_at) / RFU PRRT2 (11749266_a_at) / Fold change /veh PRRT2 (11749266_a_at) / RFU SNX32 (11753110_a_at) / Fold change /veh SNX32 (11753110_a_at) / RFU CDHR5 (11726645_a_at) / Fold change /veh CDHR5 (11726645_a_at) / RFU RCAN1 (11760418_a_at) / Fold change /veh RCAN1 (11760418_a_at) / RFU FAM167A (11723789_a_at) / Fold change /veh FAM167A (11723789_a_at) / RFU FAM26E (11764081_at) / Fold change /veh FAM26E (11764081_at) / RFU ISYNA1 (11749810_s_at) / Fold change /veh ISYNA1 (11749810_s_at) / RFU ACY1 (11761880_at) / Fold change /veh ACY1 (11761880_at) / RFU 11764098_at / Fold change /veh 11764098_at / RFU SAMD14 (11745864_x_at) / Fold change /veh SAMD14 (11745864_x_at) / RFU NPB (11741838_a_at) / Fold change /veh NPB (11741838_a_at) / RFU TMPRSS6 (11731388_a_at) / Fold change /veh TMPRSS6 (11731388_a_at) / RFU KRTAP10-2 (11738614_at) / Fold change /veh KRTAP10-2 (11738614_at) / RFU ARHGAP8 /// PRR5-ARHGAP8 (11727945_x_at) / Fold change /veh ARHGAP8 /// PRR5-ARHGAP8 (11727945_x_at) / RFU KRTAP5-7 /// NADSYN1 (11734609_at) / Fold change /veh KRTAP5-7 /// NADSYN1 (11734609_at) / RFU RASL12 (11751679_a_at) / Fold change /veh RASL12 (11751679_a_at) / RFU CDKN2B (11736163_a_at) / Fold change /veh CDKN2B (11736163_a_at) / RFU PRF1 (11729649_at) / Fold change /veh PRF1 (11729649_at) / RFU, ZNF638 /// ZNF638-IT1 / Fold change vs veh, ZNF638 /// ZNF638-IT1 / RFU, PANK3 / Fold change vs veh, PANK3 / RFU, SH3YL1 / Fold change vs veh, SH3YL1 / RFU, ZEB2 / Fold change vs veh, ZEB2 / RFU, NRIP1 / Fold change vs veh, NRIP1 / RFU, PTTG1IP / Fold change vs veh, PTTG1IP / RFU, CAPN2 / Fold change vs veh, CAPN2 / RFU, MED14 / Fold change vs veh, MED14 / RFU, SNORA58 / Fold change vs veh, SNORA58 / RFU, C1orf63 / Fold change vs veh, C1orf63 / RFU, LRRFIP1 / Fold change vs veh, LRRFIP1 / RFU, NDUFAF7 / Fold change vs veh, NDUFAF7 / RFU, SLC12A2 / Fold change vs veh, SLC12A2 / RFU, IBTK / Fold change vs veh, IBTK / RFU, ESF1 / Fold change vs veh, ESF1 / Fold change vs veh, TMEM50B / RFU, TAOK1 / Fold change vs veh, TAOK1 / RFU, ACBD3 / Fold change vs veh, ACBD3 / RFU, TMA16 / Fold change vs veh, TMA16 / RFU, RWDD3 / Fold change vs veh, RWDD3 / RFU, BCAT1 / Fold change vs veh, BCAT1 / RFU, EDEM3 / Fold change vs veh, EDEM3 / RFU, TMEM33 / Fold change vs veh, TMEM33 / RFU, WDR75 / Fold change vs veh, WDR75 / RFU, AHCTF1 / Fold change vs veh, AHCTF1 / RFU, TFRC / Fold change vs veh, TFRC / RFU, ZDHHC17 / Fold change vs veh, ZDHHC17 / RFU, NOM1 / Fold change vs veh, NOM1 / RFU, ARL8B / Fold change vs veh, ARL8B / RFU, ZBTB11 / Fold change vs veh, ZBTB11 / RFU, TAMM41 / Fold change vs veh, TAMM41 / RFU, KIAA1704 /// LOC100996395 / Fold change vs veh, KIAA1704 /// LOC100996395 / RFU, ING1 / Fold change vs veh, ING1 / RFU, TRMT61B / Fold change vs veh, TRMT61B / RFU, FUBP3 / Fold change vs veh, FUBP3 / RFU, TP53 / Fold change vs veh, TP53 / RFU, TNKS2 / Fold change vs veh, TNKS2 / RFU, ZFP14 / Fold change vs veh, ZFP14 / RFU, ACTR2 / Fold change vs veh, ACTR2 / RFU, PPP3R1 / Fold change vs veh, PPP3R1 / RFU, PIK3R1 / Fold change vs veh, PIK3R1 / RFU, HNRNPA1 / Fold change vs veh, HNRNPA1 / RFU, RNF170 / Fold change vs veh, RNF170 / RFU, ZNF28 / Fold change vs veh, ZNF28 / RFU, RNGTT / Fold change vs veh, RNGTT / RFU, OGT / Fold change vs veh, OGT / RFU, BRD1 / Fold change vs veh, BRD1 / RFU, MARS / Fold change vs veh, MARS / RFU, ZNF655 / Fold change vs veh, ZNF655 / RFU, FAHD1 / Fold change vs veh, FAHD1 / RFU, BDP1 / Fold change vs veh, BDP1 / RFU, LRRCC1 / Fold change vs veh, LRRCC1 / RFU, ARID1A / Fold change vs veh, ARID1A / RFU, ZNF146 / Fold change vs veh, ZNF146 / RFU, ZNF330 / Fold change vs veh, ZNF330 / RFU, GPN3 / Fold change vs veh, GPN3 / RFU, C9orf123 / Fold change vs veh, C9orf123 / RFU, N4BP2L2 / Fold change vs veh, N4BP2L2 / RFU, ARFIP1 / Fold change vs veh, ARFIP1 / RFU, FAM179B / Fold change vs veh, FAM179B / RFU, BCL10 / Fold change vs veh, BCL10 / RFU, UHRF1BP1L / Fold change vs veh, UHRF1BP1L / RFU, BET1 / Fold change vs veh, BET1 / RFU, CNOT2 / Fold change vs veh, CNOT2 / RFU, ZNF268 / Fold change vs veh, ZNF268 / Fold change vs veh, ZNF507 / RFU, DGCR2 / Fold change vs veh, DGCR2 / RFU, WDSUB1 / Fold change vs veh, WDSUB1 / Fold change vs veh, HSP90B1 /// MIR3652 / RFU, ADSS / Fold change vs veh, ADSS / RFU, GK / Fold change vs veh, GK / RFU, ZNF148 / Fold change vs veh, ZNF148 / RFU, TAF9 / Fold change vs veh, TAF9 / RFU, SLC1A5 / Fold change vs veh, SLC1A5 / RFU, SLMO2 / Fold change vs veh, SLMO2 / RFU, ABCC4 / Fold change vs veh, ABCC4 / RFU, LOC101060439 /// RAP1B / Fold change vs veh, LOC101060439 /// RAP1B / RFU, RFX7 / Fold change vs veh, RFX7 / RFU, GTPBP10 / Fold change vs veh, GTPBP10 / RFU, CNEP1R1 / Fold change vs veh, CNEP1R1 / RFU, BIVM-ERCC5 /// ERCC5 / Fold change vs veh, BIVM-ERCC5 /// ERCC5 / RFU, ILF3 / Fold change vs veh, ILF3 / RFU 11762660_at / Fold change /veh 11762660_at / RFU VCAN (11757783_s_at) / Fold change /veh VCAN (11757783_s_at) / RFU DDX43 (11728927_at) / Fold change /veh DDX43 (11728927_at) / RFU KRT8 (11758188_x_at) / Fold change /veh KRT8 (11758188_x_at) / RFU NKD1 (11759106_at) / Fold change /veh NKD1 (11759106_at) / RFU SRD5A1 (11742802_a_at) / Fold change /veh SRD5A1 (11742802_a_at) / RFU TPSAB1 /// TPSB2 (11721975_s_at) / Fold change /veh TPSAB1 /// TPSB2 (11721975_s_at) / RFU GSTM3 (11746129_a_at) / Fold change /veh GSTM3 (11746129_a_at) / RFU IL23R (11737362_x_at) / Fold change /veh IL23R (11737362_x_at) / RFU TMEM51 (11727254_a_at) / Fold change /veh TMEM51 (11727254_a_at) / RFU PIWIL2 (11732686_x_at) / Fold change /veh PIWIL2 (11732686_x_at) / RFU ORM1 (11744905_x_at) / Fold change /veh ORM1 (11744905_x_at) / RFU CCDC152 (11743942_at) / Fold change /veh CCDC152 (11743942_at) / RFU ECM1 (11717891_a_at) / Fold change /veh ECM1 (11717891_a_at) / RFU IL23R (11748794_a_at) / Fold change /veh IL23R (11748794_a_at) / RFU TNFAIP8L3 (11732012_x_at) / Fold change /veh TNFAIP8L3 (11732012_x_at) / RFU MBOAT4 (11741988_at) / Fold change /veh MBOAT4 (11741988_at) / RFU 11764193_at / Fold change /veh 11764193_at / RFU TMEM53 (11763286_at) / Fold change /veh TMEM53 (11763286_at) / RFU MAGEB2 (11727129_at) / Fold change /veh MAGEB2 (11727129_at) / RFU TMEM200A (11744735_a_at) / Fold change /veh TMEM200A (11744735_a_at) / RFU CCDC152 (11751479_a_at) / Fold change /veh CCDC152 (11751479_a_at) / RFU FAM211A (11726209_a_at) / Fold change /veh FAM211A (11726209_a_at) / RFU RGS16 (11746705_a_at) / Fold change /veh RGS16 (11746705_a_at) / RFU VCAN (11755009_s_at) / Fold change /veh VCAN (11755009_s_at) / RFU RHOB (11743442_s_at) / Fold change /veh RHOB (11743442_s_at) / RFU RGS16 (11720943_a_at) / Fold change /veh RGS16 (11720943_a_at) / RFU RGS16 (11720944_at) / Fold change /veh RGS16 (11720944_at) / RFU, VPS4B / Fold change vs veh, VPS4B / RFU, CREB1 / Fold change vs veh, CREB1 / RFU, DNAJC13 / Fold change vs veh, DNAJC13 / RFU, GNAQ / Fold change vs veh, GNAQ / RFU, CDK5R1 / Fold change vs veh, CDK5R1 / RFU, ZRANB3 / Fold change vs veh, ZRANB3 / RFU, CUL4A / Fold change vs veh, CUL4A / RFU, CCNY / Fold change vs veh, CCNY / RFU, UFL1 / Fold change vs veh, UFL1 / RFU, COG3 / Fold change vs veh, COG3 / RFU, DIAPH2 / Fold change vs veh, DIAPH2 / RFU, SKA2 / Fold change vs veh, SKA2 / RFU, AFF3 / Fold change vs veh, AFF3 / RFU, LMF1 / Fold change vs veh, LMF1 / RFU, IPO11 / Fold change vs veh, IPO11 / RFU, DFFB / Fold change vs veh, DFFB / RFU, FOXP1 / Fold change vs veh, FOXP1 / RFU, CARD8 / Fold change vs veh, CARD8 / RFU, STRN3 / Fold change vs veh, STRN3 / RFU, ADK / Fold change vs veh, ADK / RFU, RASSF2 / Fold change vs veh, RASSF2 / RFU, WIPF1 / Fold change vs veh, WIPF1 / RFU, LARP1B / Fold change vs veh, LARP1B / RFU, RASA1 / Fold change vs veh, RASA1 / RFU, RB1 / Fold change vs veh, RB1 / RFU, PPFIA1 / Fold change vs veh, PPFIA1 / RFU, MAT2A / Fold change vs veh, MAT2A / RFU, CCT5 / Fold change vs veh, CCT5 / RFU, WDR92 / Fold change vs veh, WDR92 / RFU, CUX1 / Fold change vs veh, CUX1 / RFU, TTC7A / Fold change vs veh, TTC7A / RFU, TMEM135 / Fold change vs veh, TMEM135 / RFU, DEPTOR / Fold change vs veh, DEPTOR / RFU, CPM / Fold change vs veh, CPM / RFU, DNAJB6 / Fold change vs veh, DNAJB6 / RFU, CACNA2D3 / Fold change vs veh, CACNA2D3 / RFU, DTX4 / Fold change vs veh, DTX4 / RFU, TFCP2 / Fold change vs veh, TFCP2 / RFU, GMCL1 /// GMCL1P1 / Fold change vs veh, GMCL1 /// GMCL1P1 / RFU, AEBP2 / Fold change vs veh, AEBP2 / RFU, SNHG1 /// SNORD22 /// SNORD25 /// SNORD26 /// SNORD27 /// SNORD28 /// SNORD29 /// SNORD31 / Fold change vs veh, SNHG1 /// SNORD22 /// SNORD25 /// SNORD26 /// SNORD27 /// SNORD28 /// SNORD29 /// SNORD31 / Fold change (Aza/veh), C12orf56 (ProbeSet 11735607_a_at) / Fold change (ACY-1035/veh), C12orf56 (ProbeSet 11735607_a_at) / Fold change (Aza/veh), FGFR1OP (ProbeSet 11751329_s_at) / Fold change (ACY-1035/veh), FGFR1OP (ProbeSet 11751329_s_at) / Fold change (Aza/veh), VPS36 (ProbeSet 11739960_a_at) / Fold change (ACY-1035/veh), VPS36 (ProbeSet 11739960_a_at) / RFU SYPL1 (11715823_x_at) / Fold change /veh SYPL1 (11715823_x_at) / RFU IGFBP7 (11715501_s_at) / Fold change /veh IGFBP7 (11715501_s_at) / RFU REEP3 (11722064_at) / Fold change /veh REEP3 (11722064_at) / RFU IGLL1 (11728026_x_at) / Fold change /veh IGLL1 (11728026_x_at): dose or concentration left out as unconfirmed
Settings: ProbeSet 11747888_a_at; LIST D

Question: How did the “RFU, SH3YL1” value turn out when `Nc1ncn([C@@H]2O[C@H](CO)[C@@H](O)[C@H]2O)c(=O)n1` [azacitidine] was run?
Answer: Its value is 53.76 RFU.
